Measurements published in patent US12679855B2, “Inhibitors of the enzyme enolase for precision oncology” (Board of Regents, The University of Texas System, priority 2019, dated 2026).
Entries after “also recorded” stand apart in the source; their conditions may differ. Like-named read-outs stand apart in the source and are kept apart here. Values belong to the molecule of their own block, whether it stands above or below them.

How the values were obtained:
[1] = test system: D423 (ENO1-deleted) glioma cells; assay: Cell proliferation assay (crystal violet) in ENO1-deleted glioma cells; format: cell-based; conditions: for IC50: Glioma cell; for selectivity for ENO1-deleted cells: versus ENO1-rescued (D423 ENO1) and ENO1-intact (LN319) glioma cells
Experimental: Cell culture experiments. Cell culture experiments were conducted using the D423-MG cell line. 1p36 homozygous deletion in D423 includes the genes from CAMTAJ to SLC25A33; this includes ENO1. Isogenic ENO1 ectopically rescued lines were described previously (pCMV ENO1 5X) (Muller et al., 2012, which is incorporated by reference herein). An ENO1-intact cell line (LN319) was used as a control for sensitivity to Enolase inhibitors. Cells were routinely cultured in Dulbecco's modified Eagle's medium supplemented with 10% fetal bovine serum.
Cell proliferation assay. Cell Proliferation was determined by crystal violet staining, as previously described (Leonard et al., 2016 and Satani et al., 2016). The cell lines used were D423 (ENO1-deleted), D423 ENO1 (overexpressing ENO1) and LN319 (control). Glioma cells were seeded in 96-well plates and treated with varying concentrations of the inhibitors described above for 7 days. Cells were then washed with PBS, fixed with 10% formalin and stained with 0.05% crystal violet. Washed and dried plates were dye-extracted using 10% acetic acid, and absorbance was measured at 595 nm using Omegastar Plate Reader (BMG Labtech). To test the efficacy of the synthesized under hypoxic conditions, 1×10^4 cells were plated in 96-well plates, treated with VCY13, VCY15, VCY16, or VCY17 and incubated for 3 days in a hypoxia station (Don Whitley Scientific, Shipley, UK) set at 1% O2 and 5% CO2. Crystal violet staining was then performed as described above.
Additional Biological Data. Pro-drug inhibitor structures and corresponding IC50 values against ENO1-deleted cells are shown below in Table 2. The name and corresponding structures of all synthesized inhibitors are given in left and middle columns of each table. Pro-drug moieties in blue represent a second pro-drug leave group while those in red represent a first pro-drug leave group. Some inhibitors also contain an acetyl-protected hydroxamate, which is also a biologically labile moiety. ENO1-deleted (D423), ENO1-isogenically rescued (D423 ENO1), and ENO1-WT (LN319) cells were treated with either pro-drug inhibitor for 5 days at 21% O2, unless otherwise specified. […] IC50,D423 values at 21% O2 are given in the right columns of each table. Experiments conducted at 1% O2 (hypoxic) or 70% O2 (hyperoxic) conditions are noted, where appropriate.

[2] = Plasma levels after IV injection of POMHEX in monkeys; format: in vivo, monkey; conditions: after IV POMHEX, monkey 2.5 mg/kg, mouse 10 mg/kg
Experimental: (§1) FIGS. 16A-16C show the ex-vivo half-life of POMHEX in biological fluids limits its clinical utility. […] Lower levels of carboxylesterase in human blood results in a longer half-life of POMHEX. (FIG. 16B) Dramatically higher drug exposure in non-human primates as compared to mice following IV injections of POMHEX. Mice (n=3; pooled) and monkeys (n=3; pooled) were injected IV with POMHEX at 10 mg/kg and 2.5 mg/kg, respectively. […] POMHEX was undetectable (<50 nM) even at the earliest time point, in both monkey and mouse experiments; at 98 nM, POMHEX was detectable 1-minute post-injection, but at no time thereafter. […] HEX and HemiPOMHEX were not measured at concentrations higher than 10 mg/kg due to the hazards associated with the derivatization agent, trimethylsilyl-diazomethane in hexane (TMS-DAM). (FIG. 16C) Schematic of POMHEX in circulation when administered IP or IV in mice. Due to high levels of plasma carboxylesterase, a gradient decrease in POMHEX away from the site of injection is accompanied by a concurrent increase in HemiPOMHEX.

[3] = Plasma and organ levels after injection of POMHEX in mice; format: in vivo, mouse; conditions: 24 hrs. after a single intravenous injection of 10 mg/kg POMHEX
Experimental: FIGS. 3A-3D show the ex-vivo half-life of POMHEX in biological fluids may limit its clinical utility. (FIG. 3A) Ex-vivo half-life of POMHEX in biological fluids. POMHEX has a half-life of ~30 seconds in mouse plasma. The degradation may be prevented by heat inactivation or de-proteinatization with acetonitrile. […] (FIG. 3B) Plasma concentration of HEX and HemiPOMHEX following a single intravenous injection of POMHEX, as a function of time. Mice were injected IV with 10 mg/kg POMHEX and sacrificed at the indicated time points. Each data point represents a single animal. Note, POMHEX itself was below the detection limit (100 nM) even at the earliest time point. It is believed that this may not be reflective of the physiological state as separation of plasma from hematocrit is required for the measurements, which adds approximately 6 minutes of processing time during which POMHEX may be degraded to HemiPOMHEX. (FIG. 3C) The results of the same experiment but performed with an intraperitoneal injection of POMHEX, at a dose of 40 mg/kg. (FIG. 3D) Quantification of POMHEX and its metabolites in mouse organs 24 hrs. after a single intravenous injection of 10 mg/kg POMHEX.
as §1, with “Due to high levels of plasma carboxylesterase, a gradient decrease in POMHEX away from the site of injection is accompanied by a concurrent increase in HemiPOMHEX.” left out

[4] = test system: D502 glioma cell line (ENO1-heterozygously deleted); assay: Enolase inhibitor sensitivity (crystal violet), ENO1-heterozygously deleted D502 cells; format: cell-based; conditions: DMEM 10% FBS, terminal cell density by crystal violet after 7 days
Experimental: (§2) Enolase inhibitor sensitivity experiments were performed, using DMEM containing 10% FBS cell culture media. IC50 (expressed in nM) were calculated based on terminal cell density measured by crystal violet after 7 days of growth. […] Left table: POMHEX. Middle table: HEX. Right table: Ratio of sensitivity to POMHEX versus HEX for each cell line.
(§3) (FIG. 19A) ENO1-deleted (D423, red), ENO1-isogenically rescued (D423 ENO1, blue), and ENO1-WT (LN319, grey) cells were treated POMHEX in RPMI media under the same experimental conditions used for NCI-60 screening. […] IC50 (expressed in nM) were calculated based on terminal cell density measured by crystal violet.
(§4) Cell proliferation assay.

[5] = test system: U343 glioma cell line (ENO1-heterozygously deleted); assay: Enolase inhibitor sensitivity (crystal violet), ENO1-heterozygously deleted U343 cells; format: cell-based; conditions: DMEM 10% FBS, terminal cell density by crystal violet after 7 days
Experimental: as §2, §3, §4

[6] = nitroimidazole in VCY17, nitrofuran in VCY15; cited from earlier work
[7] = 120 h, ENO1-deleted (D423) cells, 5 days, 21% O2, read-out: IC50,D423
[8] = D423 cells, 1% O2 (hypoxic), read-out: IC50,D423 at 1% O2
[9] = 120 h, 21% O2, 5 days where stated, read-out: IC50 against D423 (ENO1-deleted) cells

IC50 [1, 7]: 0.933 µM | IC50 [1, 8]: 0.54 µM
SMILES: CC(=O)ON1CCCC(P(=O)(NCc2ccc(F)cc2)OCc2ccc([N+](=O)[O-])o2)C1=O (stereo not shown) [VCY22, 3-(((4-fluorobenzyl)amino)((5-nitrofuran-2-yl)methoxy)phosphoryl)-2-oxopiperidin-1-yl acetate]

SMILES: CC(C)(C)C(=O)OCOP(=O)(NCc1ccc(F)cc1F)C1CCCN(O)C1=O (stereo not shown) [CDP14, ((((2,4-difluorobenzyl)amino)(1-hydroxy-2-oxopiperidin-3-yl)phosphoryl)oxy)methyl pivalate]
IC50 [1, 7]: 0.065 µM

SMILES: CC(C)(C)C(=O)OCOP(=O)(O)C1CCCN(O)C1=O (stereo not shown) [HemiPOMHEX]
half-life in monkey compared to mouse [2]: longer in monkey | level in mouse organs [3]: below the quantification limit (BQL)

SMILES: O=C1C(P(=O)(O)O)CCCN1O (stereo not shown) [HEX]
half-life in monkey compared to mouse [2]: longer in monkey | IC50 [4]: 28.8 µM | IC50 [5]: 19.7 µM

SMILES: CC(C)(C)C(=O)OCOP(=O)(NCc1cccc(F)c1)C1CCCN(O)C1=O (stereo not shown) [CDP12, ((((3-fluorobenzyl)amino)(1-hydroxy-2-oxopiperidin-3-yl)phosphoryl)oxy)methyl pivalate]
IC50 [1, 7]: 0.249 µM

IC50 [1, 7]: 5 µM
SMILES: N#CCCOP(=O)(NCc1ccccc1)C1CCCN(O)C1=O (stereo not shown) [VCY26]

IC50 [1, 9]: 0.038 µM | IC50 [1, 7]: 0.038 µM
SMILES: CC(=O)ON1CCCC(P(=O)(NCc2ccccc2)OCCSC(=O)C(C)(C)C)C1=O (stereo not shown) [VCY13, 3-((benzylamino)(2-(pivaloylthio)ethoxy)phosphoryl)-2-oxopiperidin-1-yl acetate]
selectivity for ENO1-deleted cells [1]: selective toxicity against ENO1-deleted; also recorded: dose-dependent selectivity for ENO1-deleted cells

SMILES: CC(C)(C)C(=O)OCOP(=O)(NCC1CC1)C1CCCN(O)C1=O (stereo not shown) [VCY32, ((((Cyclopropylmethyl)amino)(1-hydroxy-2-oxopiperidin-3-yl)phosphoryl)oxy)methyl pivalate]
IC50 [1, 7]: 0.009 µM | selectivity for ENO1-deleted cells [1]: selective for ENO1-deleted cells

SMILES: CC(C)(C)C(=O)OCOP(=O)(NCc1ccc(F)cc1)C1CCCN(O)C1=O (stereo not shown) [VCY19, ((((4-fluorobenzyl)amino)(1-hydroxy-2-oxopiperidin-3-yl)phosphoryl)oxy)methyl pivalate]
IC50 [1, 7]: 0.129 µM

IC50 [1, 7]: 36 µM
SMILES: O=C1C(P(=O)(NCc2ccccc2)OCOC(=O)N2CCC(N3CCCCC3)CC2)CCCN1O (stereo not shown) [CDP9]

SMILES: CC(C)(C)C(=O)OCOP(=O)(NCc1c(F)cccc1F)C1CCCN(O)C1=O (stereo not shown) [CDP19, ((((2,6-difluorobenzyl)amino)(1-hydroxy-2-oxopiperidin-3-yl)phosphoryl)oxy)methyl pivalate]
IC50 [1, 7]: 0.112 µM

SMILES: CC(C)(C)C(=O)OCOP(=O)(NCc1ccccn1)C1CCCN(O)C1=O (stereo not shown) [KY9, (((1-hydroxy-2-oxopiperidin-3-yl)((pyridin-2-ylmethyl)amino)phosphoryl)oxy)methyl pivalate]
IC50 [1, 7]: 0.096 µM

IC50 [1, 9]: 0.23 µM | IC50 [1, 7]: 0.39 µM | IC50 [1, 8]: 0.097 µM
SMILES: CC(=O)ON1CCCC(P(=O)(NCc2ccccc2)OCc2ccc([N+](=O)[O-])o2)C1=O (stereo not shown) [VCY15, 3-((benzylamino)((S-nitrofuran-2-yl)methoxy)phosphoryl)-2-oxopiperidin-1-yl acetate]
difference in bioactivation from 21% to 1% O2 ([1]; taking into account HIF-1α/hypoxia-driven increase in ENO2 expression): ~ 5 fold | selectivity for ENO1-deleted cells [1]: selective toxicity against ENO1-deleted | redox potential of the nitroheterocycle [6]: −330 mV

SMILES: CC(C)(C)C(=O)OCOP(=O)(NCc1ccc(F)c(F)c1)C1CCCN(O)C1=O (stereo not shown) [CDP13, ((((3,4-difluorobenzyl)amino)(1-hydroxy-2-oxopiperidin-3-yl)phosphoryl)oxy)methyl pivalate]
IC50 [1, 7]: 0.221 µM

SMILES: CC(C)(C)C(=O)OCOP(=O)(NCC1CCCCC1)C1CCCN(O)C1=O (stereo not shown) [CDP18, ((((Cyclohexylmethyl)amino)(1-hydroxy-2-oxopiperidin-3-yl)phosphoryl)oxy)methyl pivalate]
greater potency compared to benzylamine pro-drug (FLM37) ([1]; D423 cells): ~ 3 fold | IC50 [1, 9]: 0.077 µM | IC50 [1, 7]: 0.077 µM

IC50 [1, 7]: 0.234 µM | IC50 [1, 8]: 0.04 µM
SMILES: CC(=O)ON1CCCC(P(=O)(NCc2ccccc2)OCc2ccc([N+](=O)[O-])s2)C1=O (stereo not shown) [VCY16, 3-((benzylamino)((5-nitrothiophen-2-yl)methoxy)phosphoryl)-2-oxopiperidin-1-yl acetate]
